Tests used:
[1] = target: [CK1α]-[compound]-[CRBN/DDB1] ternary complex (Homo sapiens, UniProt P48729+Q96SW2); test: AlphaLISA assay for off-target recruitment detection, CK1α; format: binding; conditions: 1 μM compound; normalized to FPFT-2216; read-out: Normalized ternary complex response, CK1α
In short: (§1)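 Neo-substrate with 40 μg/ml donor beads and 200 nM 6×His-CRBN/DDB1 with 40 μg/ml anti-His acceptor beads were each prepared in PBS pH 7.4 with Tween-20 and 1 mM DTT, preincubated 30 min at RT, then mixed. Compounds at 2% DMSO were incubated 30 min at 25 °C, read at 680/615 nm, and normalised between DMSO background and reference glue maximum.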

[2] = target: T1, [GSPT1]-[compound of formula (I)]-[CRBN/DDB1] complex (Homo sapiens, UniProt P15170+Q96SW2); test: HTRF ternary complex assay (GSPT1); format: binding; conditions: read-out: HTRF ternary complex Average pEC50 by molecule (converted)
T1 sequence (P15170 whole entry): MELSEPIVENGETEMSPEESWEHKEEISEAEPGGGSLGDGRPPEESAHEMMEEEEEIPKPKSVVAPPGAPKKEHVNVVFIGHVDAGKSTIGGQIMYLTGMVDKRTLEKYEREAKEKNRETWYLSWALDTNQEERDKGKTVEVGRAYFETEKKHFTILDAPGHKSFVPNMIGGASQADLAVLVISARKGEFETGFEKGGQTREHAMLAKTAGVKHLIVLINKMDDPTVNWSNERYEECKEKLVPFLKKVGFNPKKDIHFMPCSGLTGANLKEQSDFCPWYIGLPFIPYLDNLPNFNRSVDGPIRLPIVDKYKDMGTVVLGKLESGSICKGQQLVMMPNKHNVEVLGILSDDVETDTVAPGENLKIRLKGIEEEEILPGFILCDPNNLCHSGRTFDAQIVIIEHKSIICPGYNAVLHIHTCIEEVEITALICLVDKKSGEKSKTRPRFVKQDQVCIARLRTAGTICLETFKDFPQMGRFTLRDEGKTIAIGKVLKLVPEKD
T1 sequence (Q96SW2 whole entry): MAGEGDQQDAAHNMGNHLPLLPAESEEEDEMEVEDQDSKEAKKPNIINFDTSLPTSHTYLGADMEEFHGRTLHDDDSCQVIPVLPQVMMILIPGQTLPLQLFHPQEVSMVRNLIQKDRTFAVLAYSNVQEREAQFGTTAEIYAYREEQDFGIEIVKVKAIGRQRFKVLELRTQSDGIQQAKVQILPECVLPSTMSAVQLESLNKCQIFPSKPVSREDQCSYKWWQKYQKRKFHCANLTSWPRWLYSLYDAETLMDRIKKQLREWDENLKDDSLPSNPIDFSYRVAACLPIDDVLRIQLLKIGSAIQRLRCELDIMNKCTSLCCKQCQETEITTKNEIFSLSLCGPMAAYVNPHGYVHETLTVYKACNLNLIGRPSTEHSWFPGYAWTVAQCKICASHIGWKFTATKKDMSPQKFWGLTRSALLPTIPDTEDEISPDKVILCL
T1 sequence (Q16531 whole entry partner): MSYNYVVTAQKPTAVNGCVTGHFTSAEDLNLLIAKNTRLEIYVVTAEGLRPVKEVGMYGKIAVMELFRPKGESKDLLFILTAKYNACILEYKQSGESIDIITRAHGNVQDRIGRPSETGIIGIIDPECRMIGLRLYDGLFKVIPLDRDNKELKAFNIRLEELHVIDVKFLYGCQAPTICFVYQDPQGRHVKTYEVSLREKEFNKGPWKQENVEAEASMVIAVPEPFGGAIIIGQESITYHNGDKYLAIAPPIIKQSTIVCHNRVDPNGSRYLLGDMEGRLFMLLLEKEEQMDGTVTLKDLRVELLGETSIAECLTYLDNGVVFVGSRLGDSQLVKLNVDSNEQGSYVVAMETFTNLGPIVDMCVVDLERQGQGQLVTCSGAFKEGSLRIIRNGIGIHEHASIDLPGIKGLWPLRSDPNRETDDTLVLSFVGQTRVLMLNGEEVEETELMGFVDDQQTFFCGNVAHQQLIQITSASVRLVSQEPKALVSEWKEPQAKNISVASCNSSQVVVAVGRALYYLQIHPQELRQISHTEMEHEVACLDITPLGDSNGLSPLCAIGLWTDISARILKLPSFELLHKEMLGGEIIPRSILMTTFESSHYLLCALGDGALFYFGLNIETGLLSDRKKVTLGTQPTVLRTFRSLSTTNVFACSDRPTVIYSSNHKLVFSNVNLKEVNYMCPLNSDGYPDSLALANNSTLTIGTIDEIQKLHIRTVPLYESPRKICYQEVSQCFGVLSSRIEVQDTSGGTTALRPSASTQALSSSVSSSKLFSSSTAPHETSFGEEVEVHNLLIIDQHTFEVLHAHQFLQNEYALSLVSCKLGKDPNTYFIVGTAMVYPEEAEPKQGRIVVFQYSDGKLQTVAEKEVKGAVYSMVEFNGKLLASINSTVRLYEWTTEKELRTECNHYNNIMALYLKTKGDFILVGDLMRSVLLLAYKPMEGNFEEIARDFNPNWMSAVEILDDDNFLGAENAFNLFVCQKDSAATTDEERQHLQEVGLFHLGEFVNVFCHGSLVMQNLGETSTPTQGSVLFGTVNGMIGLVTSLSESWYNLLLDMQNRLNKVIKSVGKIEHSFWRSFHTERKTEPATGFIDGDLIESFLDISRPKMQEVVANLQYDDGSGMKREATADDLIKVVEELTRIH
In short: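 Compounds in dose-response were incubated 180 min at 25 °C with 48 nM GSPT1 and 52.8 nM 6×His-CRBN/DDB1, plus Streptavidin-Eu cryptate and anti-6×His-d2, in buffer with 1 mM DTT and 0.5% DMSO. TR-FRET (665/620) was normalized to DMSO background and fitted with a Hill slope model for EC50/pEC50.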

GSPT1-HiBiT HEK293 cells = test: Cell Viability-CTG assay accompanying the Nano-Glo HiBiT assay; format: cell-based; conditions: 6 hours treatment, viability of GSPT1-HiBiT HEK293 cells
Procedure: In parallel, the Cell Viability-CTG assay was performed to ensure that the potential decrease of the luminescent signal observed in the Nano-Glo HiBiT assay is a result of protein degradation and not a result of decreasing cell viability. For CTG assay accompanying the Nano-Glo HiBiT assay, cells were cultured, seeded and treated as described above. After 6 hours of incubation (37° C., 5% CO2), plates were removed from the incubator and let to equilibrate to RT. Luminescent signal detection was conducted using the CellTiter-Glo Lumiescent Cell Viability Assay (Promega, cat. nr G7573). 10 μL of the Cell Titer Glo reagent was added per well, plates were shaken to facilitate lysis (460 rpm, 4 min, RT) and incubated in the dark for the following 8 min. Luminescence was read using the CLARIOstar multimode plate reader (BMG LABTECH). The raw data (the relative luminescence unit values, RLU) were uploaded under the relevant protocol and analysed in CDDVault data management platform, in a manner similar to the description above. The Mean Minimum values were calculated in CDDVault using non-linear regression and appropriate equations.

[3] = target: T2, [SALL4 ZF2]-[compound]-[CRBN/DDB1] ternary complex (Homo sapiens, UniProt Q96SW2+Q9UJQ4); test: AlphaLISA assay for off-target recruitment detection, SALL4 ZF2; format: binding; conditions: 1 μM compound; normalized to Lenalidomide; read-out: Normalized ternary complex response, SALL4 ZF2
T2 construct: SALL4 ZF2
T2 sequence (Q9UJQ4 410-432 limits assumed): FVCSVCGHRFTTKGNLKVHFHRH
T2 sequence (Q96SW2 whole entry): as the sequence (Q96SW2 whole entry) above
T2 sequence (Q16531 whole entry partner): as the sequence (Q16531 whole entry partner) above
In short: as §1

[4] = target: T3, [IKZF2 ZF2]-[compound]-[CRBN/DDB1] ternary complex (Homo sapiens, UniProt Q96SW2+Q9UKS7); test: AlphaLISA assay for off-target recruitment detection, IKZF2 ZF2; format: binding; conditions: 1 μM compound; normalized to Helios modulator; read-out: Normalized ternary complex response, IKZF2 ZF2
T3 construct: IKZF2 ZF2
T3 sequence (Q9UKS7 140-162 limits assumed): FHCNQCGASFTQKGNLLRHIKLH
T3 sequence (Q96SW2 whole entry): as the sequence (Q96SW2 whole entry) above
T3 sequence (Q16531 whole entry partner): as the sequence (Q16531 whole entry partner) above
In short: as §1

[5] = target: T1, [GSPT1]-[compound of formula (I)]-[CRBN/DDB1] complex; test: AlphaLISA ternary complex formation assay (GSPT1); format: binding; conditions: 0.5 h; 1 μM compound; normalized to reference compound CC-885; read-out: Normalized AlphaLISA ternary complex average signal at 1 μM molecule
In short: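 Biotinylated GSPT1 on streptavidin donor beads and 6×His-CRBN/DDB1 on anti-His acceptor beads (each 200 nM before mixing) in HBS pH 7.4 with 0.1% Tween-20 and 1 mM DTT, 2% DMSO final, 30 min at 25 °C. AlphaLISA luminescence is normalized between DMSO background and the reference compound's maximum.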

[CK1α]-[compound]-[CRBN/DDB1] ternary complex, sequence (P48729 whole entry): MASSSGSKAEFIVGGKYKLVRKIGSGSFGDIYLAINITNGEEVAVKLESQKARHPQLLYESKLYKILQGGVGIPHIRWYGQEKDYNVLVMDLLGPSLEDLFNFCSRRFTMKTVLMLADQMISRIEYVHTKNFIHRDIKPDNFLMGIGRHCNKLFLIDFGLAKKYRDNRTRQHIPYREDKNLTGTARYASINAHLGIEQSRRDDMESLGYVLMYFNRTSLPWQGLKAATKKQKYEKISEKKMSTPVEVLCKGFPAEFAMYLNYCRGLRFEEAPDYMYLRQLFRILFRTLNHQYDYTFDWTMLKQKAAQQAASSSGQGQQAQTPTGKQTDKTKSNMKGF
[CK1α]-[compound]-[CRBN/DDB1] ternary complex, sequence (Q96SW2 whole entry): as the sequence (Q96SW2 whole entry) above
[CK1α]-[compound]-[CRBN/DDB1] ternary complex, sequence (Q16531 whole entry partner): as the sequence (Q16531 whole entry partner) above

Row | SMILES | activation at 1 µM [1] [%] | EC50 [2] [nM] | activation at 1 µM [3] [%] | activation at 1 µM [4] [%] | activation at 1 µM [5] [%] | CTG assay Mean minimum (GSPT1-HiBiT HEK293 cells)
1 | COc1cc(C)c(Cl)cc1NC(=O)OCc1ccc2cc(C3CCC(=O)NC3=O)c(C)nc2c1 (stereo not drawn) [Compound 21, (3-(2,6-dioxopiperidin-3-yl)-2-methylquinolin-7-yl)methyl (5-chloro-2-methoxy-4-methylphenyl)carbamate] | < 10 | 316 to 3160 | < 10 | < 10 | > 50 | ++++ (++++≥75% of viability of the HiBiT-GSPT1 HEK293 cells)
2 | Cc1ccc(NC(=O)OCc2cc(F)c3cc(C4CCC(=O)NC4=O)c(C)nc3c2)cc1Cl (stereo not drawn) [Compound 22, (3-(2,6-dioxopiperidin-3-yl)-5-fluoro-2-methylquinolin-7-yl)methyl (3-chloro-4-methylphenyl)carbamate] | < 10 | 316 to 3160 | < 10 | < 10 | > 50 | ++++ (++++≥75% of viability of the HiBiT-GSPT1 HEK293 cells)
3 | Cc1ccc(NC(=O)NCc2ccc3cc(N4CCC(=O)NC4=O)c(C)nc3c2)cc1Cl [Compound 27, 1-(3-chloro-4-methylphenyl)-3-((3-(2,4-dioxotetrahydropyrimidin-1(2H)-yl)-2-methylquinolin-7-yl)methyl)urea] | < 10 | < 316 | < 10 | < 10 | 10 to 50 | ++++ (++++≥75% of viability of the HiBiT-GSPT1 HEK293 cells)
4 | Cc1ccc(NC(=O)OCc2ccc3cc(N4CCC(=O)NC4=O)c(C)nc3c2)cc1Cl [Compound 28, (3-(2,4-dioxotetrahydropyrimidin-1(2H)-yl)-2-methylquinolin-7-yl)methyl (3-chloro-4-methylphenyl)carbamate] | < 10 | 316 to 3160 | < 10 | < 10 | 10 to 50 | ++++ (++++≥75% of viability of the HiBiT-GSPT1 HEK293 cells)
5 | Cc1ccc(NC(=O)OCc2ccc3nc(C)c(N4CCC(=O)NC4=O)cc3c2)cc1Cl [Compound 29, (3-(2,4-dioxotetrahydropyrimidin-1(2H)-yl)-2-methylquinolin-6-yl)methyl (3-chloro-4-methylphenyl)carbamate] | < 10 | > 3160 | 25 to 50 | < 10 | 10 to 50 | ++++ (++++≥75% of viability of the HiBiT-GSPT1 HEK293 cells)
6 | Cc1ccc(NC(=O)CCc2ccc3cc(C4CCC(=O)NC4=O)c(C)nc3c2)cc1Cl (stereo not drawn) [Compound 32, N-(3-chloro-4-methylphenyl)-3-(3-(2,6-dioxopiperidin-3-yl)-2-methylquinolin-7-yl)propanamide] | < 10 | 316 to 3160 | < 10 | < 10 | > 50 | ++++ (++++≥75% of viability of the HiBiT-GSPT1 HEK293 cells)

Continued, in another order:

Row | activation at 1 µM [1] [%] | EC50 [2] [nM] | activation at 1 µM [3] [%] | activation at 1 µM [4] [%] | activation at 1 µM [5] [%] | SMILES | CTG assay Mean minimum (GSPT1-HiBiT HEK293 cells)
7 | < 10 | < 316 | < 10 | < 10 | 10 to 50 | Cc1nc2cc(COC(=O)Nc3cc(Cl)c(C)c(CN4CCOCC4)c3)ccc2cc1C1CCC(=O)NC1=O (stereo not drawn) [Compound 17, (3-(2,6-dioxopiperidin-3-yl)-2-methylquinolin-7-yl)methyl (3-chloro-4-methyl-5-(morpholinomethyl)phenyl)carbamate] | ++++ (++++≥75% of viability of the HiBiT-GSPT1 HEK293 cells)
8 | < 10 | 316 to 3160 | < 10 | < 10 | 10 to 50 | Cc1nc2cc(COC(=O)Nc3ccc(C(F)(F)F)c(Cl)c3)ccc2cc1C1CCC(=O)NC1=O (stereo not drawn) [Compound 18, (3-(2,6-dioxopiperidin-3-yl)-2-methylquinolin-7-yl)methyl (3-chloro-4-(trifluoromethyl)phenyl)carbamate] | ++++ (++++≥75% of viability of the HiBiT-GSPT1 HEK293 cells)
9 | < 10 | > 3160 | < 10 | < 10 | 10 to 50 | Cc1nc2cc(COC(=O)Nc3cccc(OC(F)(F)F)c3)ccc2cc1C1CCC(=O)NC1=O (stereo not drawn) [Compound 19, (3-(2,6-dioxopiperidin-3-yl)-2-methylquinolin-7-yl)methyl (3-(trifluoromethoxy)phenyl)carbamate] | ++++ (++++≥75% of viability of the HiBiT-GSPT1 HEK293 cells)
10 | < 10 | < 316 | < 10 | < 10 | 10 to 50 | Cc1nc2cc(COC(=O)Nc3ccc(-c4ccccc4)nc3)ccc2cc1C1CCC(=O)NC1=O (stereo not drawn) [Compound 20, (3-(2,6-dioxopiperidin-3-yl)-2-methylquinolin-7-yl)methyl (6-phenylpyridin-3-yl)carbamate] | ++++ (++++≥75% of viability of the HiBiT-GSPT1 HEK293 cells)
11 | < 10 | 316 to 3160 | < 10 | < 10 | > 50 | Cc1nc2cc(COC(=O)Nc3cc(C(C)(C)C)no3)ccc2cc1C1CCC(=O)NC1=O (stereo not drawn) [Compound 30, (3-(2,6-dioxopiperidin-3-yl)-2-methylquinolin-7-yl)methyl (3-(tert-butyl)isoxazol-5-yl)carbamate] | ++++ (++++≥75% of viability of the HiBiT-GSPT1 HEK293 cells)
12 | < 10 | 316 to 3160 | < 10 | < 10 | 10 to 50 | Cc1nc2cc(COC(=O)Nc3csc(-c4ccccc4)c3)ccc2cc1C1CCC(=O)NC1=O (stereo not drawn) [Compound 37, (3-(2,6-dioxopiperidin-3-yl)-2-methylquinolin-7-yl)methyl (5-phenylthiophen-3-yl)carbamate] | ++++ (++++≥75% of viability of the HiBiT-GSPT1 HEK293 cells)
13 | < 10 | 316 to 3160 | < 10 | < 10 | < 10 | Cc1ccc(NC(=O)OCc2ccc3cc([C@@H]4CCC(=O)NC4=O)c(C)nc3c2)cc1Cl [Compound 38, (3-(2,6-dioxopiperidin-3-yl)-2-methylquinolin-7-yl)methyl (3-chloro-4-methylphenyl)carbamate] | ++++ (++++≥75% of viability of the HiBiT-GSPT1 HEK293 cells)
14 | < 10 | 316 to 3160 | < 10 | < 10 | > 50 | Cc1ccc(NC(=O)OCc2ccc3cc([C@H]4CCC(=O)NC4=O)c(C)nc3c2)cc1Cl [Compound 39, (3-(2,6-dioxopiperidin-3-yl)-2-methylquinolin-7-yl)methyl (3-chloro-4-methylphenyl)carbamate] | ++++ (++++≥75% of viability of the HiBiT-GSPT1 HEK293 cells)
15 | < 10 | 316 to 3160 | < 10 | < 10 | > 50 | Cc1nc2cc(COC(=O)Nc3ccc(N4CCOCC4)nc3)ccc2cc1C1CCC(=O)NC1=O (stereo not drawn) [Compound 42, (3-(2,6-dioxopiperidin-3-yl)-2-methylquinolin-7-yl)methyl (6-morpholinopyridin-3-yl)carbamate] | ++++ (++++≥75% of viability of the HiBiT-GSPT1 HEK293 cells)

From US20260232682A1, “GSPT1 DEGRADER COMPOUNDS” (Captor Therapeutics S.A., priority 2023, published 2026)
